Test results taken from patent publication US12291494B2, “Methods of treating fibrosis” (Nogra Pharma Limited, priority 2012, dated 2025).
Entries after “also recorded” stand apart in the source; their conditions may differ.

What was measured:
C57BL/6 mice [1] = assay: DSS chronic colitis (Ex. 7): assessment of colitis course; format: in vivo
Protocol: Chronic colitis and fibrosis were induced in mice by oral administration of 2.5% (w/v) DSS in drinking water, for three cycles (5 day DSS, 7 days of water). Animals were monitored daily for food and fluid intake and were weighed at the beginning of the study and thereafter regularly every three days.
The mice were randomly divided into two groups: i. DSS and ii. DSS+GED. Each group consisted of 25 mice and was compared with 10 control animals, which received only water. GED (30 mg/kg/mouse) was dissolved in a solution containing 0.5% Carboxymethylcellulose sodium salt (CMC; MW: 90,000 Da; Sigma Aldrich) and 1% Tween 80 and was administrated daily by oral gavage (100 μl/mouse). GED was administered at the beginning of second cycle.
Animals were observed daily for fluid intake, weight changes, and examined for signs of colitis including weight loss, diarrhoea, rectal bleeding and prolapse as well as signs of systemic inflammation such as piloerection, lethargy, and periorbital exudates.

C57BL/6 mice [2] = assay: DSS chronic colitis (Ex. 7): microscopic colonic lesions (H&E, Masson's trichrome); format: in vivo
Protocol: The macroscopic colonic lesions including dilation, thickness and stenosis were scored by an independent observer, unaware of the mice treatment. Tissue specimens from the colon were dissected and immediately frozen or fixed in fresh 4% formaldehyde (FA)/PBS solution for 3 h at room temperature followed by the standard procedure for paraffin embedding. Paraffin embedded tissues transversally sectioned at 3 μm were subject to Hematoxylin/Eosin staining, to assess the inflammatory degree, and Masson trichrome to better assess connective tissue and fibrosis. […] The degree of intestinal inflammation was assessed according to the density and extent of chronic inflammatory infiltrate, loss of goblet cells, and bowel wall thickening. […]
Intestinal fibrosis was scored as absent, mild, or severe, depending on the density and extent of trichrome-positive connective tissue staining and disruption of tissue architecture.

[3] = test system: main markers of fibrosis (Collagen I-III, α-SMA, TGF-β1, Smad3, CTGF); assay: DSS chronic colitis (Ex. 7): immunohistochemistry of colon; format: in vivo, mice; conditions: DSS+GED vs DSS, listed as GED
Protocol: Tissue specimens from the colon, dissected and fixed in fresh 4% formaldehyde (FA)/PBS solution for 3 hours at room temperature, were dehydrated in a graded ethanol series, and embedded in low-temperature-fusion paraffin. 3-μm-thick sections were incubated in a solution of methanol and 3% hydrogen peroxide for 45 min.
Samples were incubated overnight with specific antibodies against α-smooth muscle actin (α-SMA, Abcam), collagen types I-III (Abcam), TGF-β1 (Abcam), connective tissue growth factor (CTGF) (Abcam), pSmad3 and Smad3 (Cell Signaling), Smad7 (Imgenex) PPARγ (Cell Signaling). The samples were washed 5 min with PBS and incubated with streptavidin-biotin-peroxidase conjugated secondary antibody (Dako LSAB Corporation, cod K0675, Dako-Cytomation, Milano). After one wash in PBS for 10 min the sections are subject to incubation with 3,3-diaminobenzidine-tetrahydrochloride for 1-3 min. The counterstaining of nuclei was obtained by Hematoxilin Eosin. The specificity of immune reaction was effected keeping off the primary antibodies. Finally the samples were stained with hematoxylin of Mayer and observed under the Olympus BX51 Light Microscope (Olympus, Optical Co. Ltd., Tokyo, Japan).

SMILES: COC(Cc1ccc(N)cc1)C(=O)O (racemic) [Compound 34, (±)-2-methoxy-3-(4′-aminophenyl) propionic acid]
- Body weight (C57BL/6 mice [1]; chronic DSS colitis, GED 30 mg/kg oral daily, mean ± SEM): 25.132 ± 0.458 ^
- Mortality (C57BL/6 mice [1]; chronic DSS colitis, GED 30 mg/kg oral gavage daily, DSS 2): 0 n. mice
- mice with systemic manifestations (piloerection, periorbital exudates and/or lethargy) (C57BL/6 mice [1]; seventh day of DSS oral administration, DSS mice 40%): 30%
- mice with moderate to severe diarrhea (C57BL/6 mice [1]; seventh day of DSS oral administration, DSS mice 70%): 50%
- intestinal wall architecture (H&E, Masson's trichrome) (C57BL/6 mice [2]; FIG. 12 legend, result in words): restoring of normal intestinal wall architecture
- Total microscopic score (maximum 10) (C57BL/6 mice [2]; daily oral GED, DSS 6.45±0.82, FIG. 12): 3.36±0.55
- Collagen I-III and α-SMA (immunohistochemistry) ([3]; FIG. 13A, 13B): marked reduction; also recorded: significant reduction
- TGF-β1, Smad, CTGF (immunohistochemistry) ([3]; FIG. 15 / data not shown): marked reduction; also recorded: significant reduction
